Laboratory results as given in patent US10844049B2, “GLP-1R agonists and uses thereof” (QILU REGOR THERAPEUTICS INC., priority 2018, dated 2020).

Assays:
[1] = target: T1, GLP1R (Homo sapiens, UniProt P43220); assay: GLP1R cAMP HTRF assay, HEK293/GLP-1R/CRE/Luc (HEK293T cells); type: cell-based
Method in brief: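 cAMP accumulation via HTRF after 30 min, 37 °C exposure of 1000 receptor-expressing cells/well to compound (0.5% DMSO final) in IBMX (500 μM)/0.1% BSA DPBS.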

[2] = target: T1, GLP1R; assay: GLP1R cAMP assay, CHO cells stably expressing human GLP-1R; type: cell-based
Method: GLP-1R-mediated agonist activity was determined with a cell-based functional assay utilizing an HTRF (Homogeneous Time-Resolved Fluorescence) cAMP detection kit (cAMP Dynamic 2 Assay Kit; CisBio cat #62AM4PEC) that measures cAMP levels in the cell. The method is a competitive immunoassay between native cAMP produced by the cells and exogenous cAMP labeled with the dye d2. The tracer binding is visualized by a mAb anti-cAMP labeled with Cryptate. The specific signal (i.e., energy transfer) is inversely proportional to the concentration of cAMP in either standard or experimental sample.
Varying concentrations of each compound to be tested (in DMSO) were diluted in DMSO to obtain 200× compound working solution first and then 50 nl compounds were added to a white 384-well assay plate (Greiner 784075) with ECHO. The final DMSO concentration was 0.5%. The compound concentration range may be adjusted at any time.
Cells were removed from cryopreservation, re-suspended in 5 mL of Dulbecco's Phosphate Buffered Saline (DPBS-Sigma Cat # D8537) and centrifuged at 900 g for 5 min at 22° C. The cell pellet was then re-suspended in 1 mL of assay buffer [DPBS with 500 μM IBMX (Sigma #15879) and 0.1% BSA (Sigma # A1933). IBMX and BSA were freshly added on the day of assay]. A 10 μL sample of the cell suspension was counted on an Invitrogen Countess II to determine cell viability and cell count per mL. The remaining cell suspension was then adjusted with assay buffer to deliver 1000 viable cells per well using a Matrix Combi Multidrop reagent dispenser. 10 μL cell suspensions were added to each well of the assay plate which already contains compound. The plate was sealed and incubated at 37° C. with 5% CO2 for 30 minutes.
Following the 30 minute incubation, 5 μL of labeled d2 cAMP and 5 μL of anti-cAMP antibody (both diluted 1:20 in cell lysis buffer; as described in the manufacturer's assay protocol) were added to each well of the assay plate. The plates w ere then incubated at room temperature and after 60 minutes, changes in the HTRF signal were read with an Envision multi-label plate reader using excitation of 330 nm and emissions of 615 and 665 nm. Raw data were converted to nM cAMP by interpolation from a cAMP standard curve (as described in the manufacturer's assay protocol) and the percent effect was determined relative to a saturating concentration of the full agonist GLP-17-37 (10 nM) included on each plate. EC50 determinations were made from agonist dose-response curves analyzed with a curve fitting program using a 4-parameter logistic dose response equation. […]

[3] = mean ± spread, read-out: HEK293T cells EC50
[4] = CHO cells, mean ± spread, read-out: CHO cells EC50
[5] = CHO cells stably expressing GLP-1R, read-out: CHO cAMP stable EC50

T1 sequence (P43220 24-463): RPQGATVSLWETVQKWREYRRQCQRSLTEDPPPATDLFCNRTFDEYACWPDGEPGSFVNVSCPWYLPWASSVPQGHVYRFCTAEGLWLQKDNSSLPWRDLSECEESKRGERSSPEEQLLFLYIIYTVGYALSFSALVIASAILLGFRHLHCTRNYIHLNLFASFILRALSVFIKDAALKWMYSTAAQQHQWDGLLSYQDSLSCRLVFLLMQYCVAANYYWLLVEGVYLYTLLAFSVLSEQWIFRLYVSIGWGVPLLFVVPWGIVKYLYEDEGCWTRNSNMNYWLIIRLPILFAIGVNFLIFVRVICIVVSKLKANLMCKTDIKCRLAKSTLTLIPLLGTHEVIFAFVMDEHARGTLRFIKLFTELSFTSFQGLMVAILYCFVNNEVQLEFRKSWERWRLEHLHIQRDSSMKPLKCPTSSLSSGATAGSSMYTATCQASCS

Compound | EC50 [1, 3] [nM] | EC50 [2, 4] [nM] | EC50 ([1]; read-out: EC50) [nM] | EC50 [2, 5] [nM]
N#Cc1ccc(COc2cccc(N3CCC(Cc4nc5ccc(C(=O)O)c(F)c5n4C[C@@H]4CCO4)CC3)n2)c(F)c1 [Compound 228, (S)-2-((l-(6-((4-cyano-2-fluorobenzyl)oxy)pyridin-2-yl)piperidin-4-yl)methyl)-7-fluoro-1-(oxetan-2-ylmethyl)-1H-benzo[d]imidazole-6-carboxylic acid] |  |  | ≤ 15 | ≤ 150
N#Cc1ccc(COc2nc(C3=CCN(Cc4nc5ccc(C(=O)O)cc5n4C[C@@H]4CCO4)CC3)ccc2F)c(F)c1 [drawing 57] | 0.517 | 6.05 |  | 
O=C(O)c1ccc2nc(CN3CC=C(c4cncc(OCc5ccc(Cl)cc5F)n4)CC3)n(C[C@@H]3CCO3)c2c1 [drawing 61] | 2.94 | 136 ± 32.6 |  | 
N#Cc1ccc(COc2cccc(C3=CCN(Cc4nc5ccc(C(=O)O)cc5n4C[C@@H]4CCO4)CC3)n2)c(F)c1 [drawing 55] | 0.219 | 2.25 |  | 
O=C(O)c1ccc2nc(CN3CCC(c4cncc(OCc5ccc(Cl)cc5F)n4)CC3)n(C[C@@H]3CCO3)c2c1 [drawing 60, reference compound] | 10.5 | 289 ± 53 |  | 
O=C(O)c1ccc2nc(CN3CC=C(c4ccnc(OCc5ccc(Cl)cc5F)n4)CC3)n(C[C@@H]3CCO3)c2c1 [drawing 59] | 1.8 | 73.7 |  | 
O=C(O)c1ccc2nc(CN3CCC(c4ccnc(OCc5ccc(Cl)cc5F)n4)CC3)n(C[C@@H]3CCO3)c2c1 [drawing 58, reference compound] | 1.98 | 95.8 |  | 
N#Cc1ccc(COc2cncc(C3CCN(Cc4nc5ccc(C(=O)O)cc5n4C[C@@H]4CCO4)CC3)n2)c(F)c1 [drawing 62, reference compound] | 15.9 | 924 ± 230 |  | 
O=C(O)c1ccc2nc(CN3CC=C(c4cccc(OCc5cc(Cl)cc(Cl)c5)n4)CC3)n(C[C@@H]3CCO3)c2c1 [Compound 139, (S)-2-((6-((3,5-dichlorobenzyl)oxy)-3′,6′-dihydro-[2,4′-bipyridin]-1′(2′H)-yl)methyl)-1-(oxetan-2-ylmethyl)-1H-benzo[d]imidazole-6-carboxylic acid] |  |  | ≤ 150 | 
O=C(O)c1ccc2nc(CN3CC=C(c4ncc(F)c(OCc5ccc(Cl)cc5F)n4)CC3)n(C[C@@H]3CCO3)c2c1 [Compound 123] |  |  | ≤ 15 | 
O=C(O)c1ccc2nc(CN3CC=C(c4cccc(OCc5ccc(-n6ccnc6)cc5)n4)CC3)n(C[C@@H]3CCO3)c2c1 [Compound 154, (S)-2-((6-((4-(1H-imidazol-1-yl)benzyl)oxy)-3′,6′-dihydro-[2,4′-bipyridin]-1′(2′H)-yl)methyl)-1-(oxetan-2-ylmethyl)-1H-benzo[d]imidazole-6-carboxylic acid] |  |  | ≤ 15 | 
CCOc1ccc(COc2cccc(C3=CCN(Cc4nc5ccc(C(=O)O)cc5n4C[C@@H]4CCO4)CC3)n2)cc1OC [Compound 166, (S)-2((6-((4-ethoxy-3-methoxybenzyl)oxy)-3′,6′-dihydro-[2,4′-bipyridin]-1′(2′H)-yl)methyl)-1-(oxetan-2-ylmethyl)-1H-benzo[d]imidazole-6-carboxylic acid] |  |  | ≤ 150 | 
O=C(O)c1ccc2nc(CN3CCN(c4cccc(OCc5ccc(Cl)cc5F)c4)CC3)n(C[C@@H]3CCO3)c2c1 [Compound 178, (S)-2-((4-(3-((4-chloro-2-fluorobenzyl)oxy)phenyl)piperazin-1-yl)methyl)-1-(oxetan-2-ylmethyl)-1H-benzo[d]imidazole-6-carboxylic add] |  |  | ≤ 15 | 
N#Cc1ccc(COc2cccc(N3CCC(Cc4nc5ccc(C(=O)O)nc5n4C[C@@H]4CCO4)CC3)n2)c(F)c1 [Compound 227, (S)-2-((l-(6-((4-cyano-2-fluorobenzyl)oxy)pyridin-2-yl)piperidin-4-yl)methyl)-3-(oxetan-2-ylmethyl)-3H-imidazo[4,5-b]pyridine-5-carboxylic acid] |  |  | ≤ 15 | ≤ 150
CC1(C)CN(Cc2nc3ccc(C(=O)O)cc3n2C[C@@H]2CCO2)CC=C1c1cccc(OCc2ccc(C#N)cc2F)n1 [Compound 235, (S)-2-((6-((4-cyano-2-fluorobenzyl)oxy)-3′,3′-dimethyl-3′,6′-dihydro-[2H′-bipyridin]-1′(2′H)yl)methyl)-1-(oxetan-2-ylmethyl)-1H-benzo[d]imidazole-6-carboxylic add] |  |  | ≤ 1000 | 
O=C(O)c1ccc2nc(CN3CCC(N4Cc5ccccc5N(CCc5ccc(Cl)cc5F)C4=O)CC3)n(C[C@@H]3CCO3)c2c1 [Compound 53, (S)-2-((4-(1-(4-chloro-2-fluorophenethyl)-2-oxo-1,4-dihydroquinazolin-3(2H)-yl)piperidin-1-yl)methyl)-1-(oxetan-2-ylmethyl)-1H-benzo[d]imidazole-6-carboxylic acid] |  |  | > 1000 | 

Results, then the compound that gave them:

EC50 [1, 3] [nM] | EC50 [2, 4] [nM] | EC50 ([1]; read-out: EC50) [nM] | EC50 [2, 5] [nM] | Compound
0.168 | 3.86 |  |  | N#Cc1ccc(COc2cccc(C3=CCN(Cc4nc5ccc(C(=O)O)nc5n4C[C@@H]4CCO4)CC3)n2)c(F)c1 [drawing 69]
3.94 | 42.6 ± 11.5 |  |  | O=C(O)c1ccc2nc(CN3CC=C(c4cccc(OCc5ccc(Cl)cc5F)c4)CC3)n(C[C@@H]3CCO3)c2c1 [drawing 67]
0.412 | 7.65 |  |  | O=C(O)c1ccc2nc(CN3CCC(c4cccc(OCc5ccc(Cl)cc5F)n4)CC3)n(C[C@@H]3CCO3)c2c1 [reference compound]
0.393 | 3.28 |  |  | O=C(O)c1ccc2nc(CN3CC=C(c4cccc(OCc5ccc(Cl)cc5F)n4)CC3)n(C[C@@H]3CCO3)c2c1 [drawing 65]
0.3 | 3.5 |  |  | N#Cc1ccc(COc2cccc(C3CCN(Cc4nc5ccc(C(=O)O)nc5n4C[C@@H]4CCO4)CC3)n2)c(F)c1 [reference compound]
9.85 | 260 ± 38 |  |  | N#Cc1ccc(COc2cncc(C3=CCN(Cc4nc5ccc(C(=O)O)cc5n4C[C@@H]4CCO4)CC3)n2)c(F)c1 [drawing 63]
5.65 | 463 |  |  | N#Cc1ccc(COc2nc(C3CCN(Cc4nc5ccc(C(=O)O)cc5n4C[C@@H]4CCO4)CC3)ccc2F)c(F)c1 [reference compound]
8.58 | 105 ± 32.7 |  |  | O=C(O)c1ccc2nc(CN3CCC(c4cccc(OCc5ccc(Cl)cc5F)c4)CC3)n(C[C@@H]3CCO3)c2c1 [drawing 66, reference compound]
